Literature values, collected in US20230228654A1, “Blood Sampling Device and Method for PEth Measurement” (CAPITAINER AB, priority 2020, published 2023).

Tested on: PLD
Conditions: Schröck et al, Alcohol 2018; cited from earlier work

Row | Structure (SMILES) | potency as PLD inhibitor
1 | O=C(NCCN1CCC(n2c(=O)[nH]c3ccccc32)CC1)c1cc2cc(F)ccc2[nH]1 [FIPI, 5-fluoro-2-indolyl-deschlorohalopemide] | low potency
2 | O=C(NCCN1CCC(n2c(=O)[nH]c3cc(Cl)ccc32)CC1)c1ccc(F)cc1 [halopemide] | low potency
